Data published in ChEMBL document CHEMBL1149622, “Synthesis, resolution, stereochemistry, and molecular modeling of (R)- and (S)-2-acetyl-1-(4'-chlorophenyl)-6,7-dimethoxy-1,2,3,4-tetrahydroisoquinoline AMPAR antagonists” (2007).

How the values were obtained:
Mus musculus [1] = organism: Mus musculus; assay: Anticonvulsant activity against audiogenic clonus seizures in DBA/2 mouse after 30 mins; assay type: functional; settings: DBA/2, 0.5 h
Mus musculus [2] = organism: Mus musculus; assay: Anticonvulsant activity against audiogenic tonus seizures in DBA/2 mouse after 30 mins; assay type: functional; settings: DBA/2, 0.5 h

| Structure (SMILES) | ED50 (Mus musculus [1]) [µmol/kg] | ED50 (Mus musculus [2]) [µmol/kg] |
| --- | --- | --- |
| COc1cc2c(cc1OC)[C@@H](c1ccc(Cl)cc1)N(C(C)=O)CC2 | 4.1 | 2.05 |
| COc1cc2c(cc1OC)[C@H](c1ccc(Cl)cc1)N(C(C)=O)CC2 | 22.4 | 11.2 |
| COc1cc2c(cc1OC)C(c1ccc(Cl)cc1)N(C(C)=O)CC2 (racemic) | 6.51 | 3.53 |
